# From patent US20250114345A1, “COMPOUNDS AND COMPOSITIONS AS CBP/P300 DEGRADERS AND USES THEREOF” (Oncopia Therapeutics, Inc. d/b/a/ SK Life Science Labs, priority 2023, published 2025)
# Target: T1, p300 (Homo sapiens, UniProt Q09472)
# T1 construct: host or cells: A549 P300 HiBit cells
# Assay: P300 degradation, HiBit technology in A549 P300 HiBit cells (2 h)
# Type: cell-based
# Conditions: 2 hrs post treatment; for Dmax: A549, A549 P300 HiBit cells; for DC50: A549 P300 HiBit cells
# Procedure, shortened: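 Degradation potency and Dmax came from HiBiT luminescence in tagged A549 cells treated with serially diluted compound (DMSO stocks at 10 mM) after overnight equilibration in F-12K with 10% heat-inactivated FBS.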
# T1 sequence (Q09472 whole entry): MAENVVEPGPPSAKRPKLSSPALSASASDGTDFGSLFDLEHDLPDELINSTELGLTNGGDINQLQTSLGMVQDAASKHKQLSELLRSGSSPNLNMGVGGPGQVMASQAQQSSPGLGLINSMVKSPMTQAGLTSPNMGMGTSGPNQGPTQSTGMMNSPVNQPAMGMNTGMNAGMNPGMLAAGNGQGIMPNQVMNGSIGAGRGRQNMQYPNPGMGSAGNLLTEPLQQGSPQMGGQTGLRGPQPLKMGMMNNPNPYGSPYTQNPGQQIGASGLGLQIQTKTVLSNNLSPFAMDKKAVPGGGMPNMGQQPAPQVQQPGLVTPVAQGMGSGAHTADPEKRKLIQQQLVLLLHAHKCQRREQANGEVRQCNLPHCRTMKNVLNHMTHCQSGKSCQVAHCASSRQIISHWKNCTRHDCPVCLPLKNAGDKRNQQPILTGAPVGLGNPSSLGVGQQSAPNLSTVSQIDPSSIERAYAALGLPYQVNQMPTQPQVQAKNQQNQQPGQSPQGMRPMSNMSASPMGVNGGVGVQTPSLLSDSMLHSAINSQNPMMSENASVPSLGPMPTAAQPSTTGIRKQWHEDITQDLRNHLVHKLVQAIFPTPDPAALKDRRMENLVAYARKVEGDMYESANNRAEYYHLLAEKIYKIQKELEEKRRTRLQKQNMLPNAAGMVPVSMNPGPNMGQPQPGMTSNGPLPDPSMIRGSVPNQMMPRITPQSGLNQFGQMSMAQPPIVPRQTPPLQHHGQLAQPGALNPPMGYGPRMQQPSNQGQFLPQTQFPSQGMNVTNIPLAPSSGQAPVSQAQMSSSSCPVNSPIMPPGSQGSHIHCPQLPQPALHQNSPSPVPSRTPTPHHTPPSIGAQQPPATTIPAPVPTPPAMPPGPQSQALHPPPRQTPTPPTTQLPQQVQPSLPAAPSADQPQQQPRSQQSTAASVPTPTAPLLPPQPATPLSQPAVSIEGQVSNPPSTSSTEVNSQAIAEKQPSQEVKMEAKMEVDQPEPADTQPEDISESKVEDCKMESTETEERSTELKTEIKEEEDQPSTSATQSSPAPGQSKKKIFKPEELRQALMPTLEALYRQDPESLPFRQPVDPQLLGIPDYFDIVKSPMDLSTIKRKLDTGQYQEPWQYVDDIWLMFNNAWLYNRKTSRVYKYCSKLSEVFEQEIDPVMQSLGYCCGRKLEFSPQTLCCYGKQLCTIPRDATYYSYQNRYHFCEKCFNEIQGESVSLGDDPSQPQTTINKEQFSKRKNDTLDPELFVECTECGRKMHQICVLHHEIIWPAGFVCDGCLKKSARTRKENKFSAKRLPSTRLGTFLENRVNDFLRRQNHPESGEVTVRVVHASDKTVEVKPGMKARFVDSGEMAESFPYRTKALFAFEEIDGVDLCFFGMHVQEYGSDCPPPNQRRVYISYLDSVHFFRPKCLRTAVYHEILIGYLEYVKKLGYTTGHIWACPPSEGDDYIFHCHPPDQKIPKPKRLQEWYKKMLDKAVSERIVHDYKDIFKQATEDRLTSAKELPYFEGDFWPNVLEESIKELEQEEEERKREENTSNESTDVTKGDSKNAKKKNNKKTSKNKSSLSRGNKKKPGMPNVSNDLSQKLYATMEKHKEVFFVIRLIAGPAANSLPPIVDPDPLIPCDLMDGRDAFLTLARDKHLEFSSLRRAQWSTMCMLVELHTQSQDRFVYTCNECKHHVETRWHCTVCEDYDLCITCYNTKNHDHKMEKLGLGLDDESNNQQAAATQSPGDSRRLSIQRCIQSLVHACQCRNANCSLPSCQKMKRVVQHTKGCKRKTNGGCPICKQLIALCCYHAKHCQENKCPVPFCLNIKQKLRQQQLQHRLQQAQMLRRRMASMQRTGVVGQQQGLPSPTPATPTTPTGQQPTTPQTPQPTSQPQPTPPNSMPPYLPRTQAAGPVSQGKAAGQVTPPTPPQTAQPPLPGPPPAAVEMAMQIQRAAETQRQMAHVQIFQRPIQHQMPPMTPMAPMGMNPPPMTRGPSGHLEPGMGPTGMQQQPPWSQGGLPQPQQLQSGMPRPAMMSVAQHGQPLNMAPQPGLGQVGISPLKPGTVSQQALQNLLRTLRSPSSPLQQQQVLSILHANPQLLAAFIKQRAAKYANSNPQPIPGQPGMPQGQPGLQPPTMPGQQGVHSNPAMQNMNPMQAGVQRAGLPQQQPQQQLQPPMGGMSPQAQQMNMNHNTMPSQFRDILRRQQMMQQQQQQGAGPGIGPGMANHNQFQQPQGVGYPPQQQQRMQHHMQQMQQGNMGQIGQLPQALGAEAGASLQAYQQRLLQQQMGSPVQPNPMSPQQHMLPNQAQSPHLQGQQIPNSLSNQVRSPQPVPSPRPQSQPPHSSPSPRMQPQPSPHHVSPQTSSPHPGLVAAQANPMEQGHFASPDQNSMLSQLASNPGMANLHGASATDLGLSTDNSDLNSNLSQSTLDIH
Dmax,DC50,Structure (SMILES)
> 80%,< 1 nM,"Cc1cc2c(N3CCOc4cc(-c5ccc(C(=O)NCC#Cc6ccc7occ(C8CCC(=O)NC8=O)c7c6)nc5)ncc43)cc(C3CCOCC3)cc2n(C)c1=O (centres unmarked) [Example B109, 5-(4-(1,3-dimethyl-2-oxo-7-(tetrahydro-2H-pyran-4-yl)-1,2-dihydroquinolin-5-yl)-3,4-dihydro-2H-pyrido[4,3-b][1,4]oxazin-7-yl)-N-(3-(3-(2,6-dioxopiperidin-3-yl)benzofuran-5-yl)prop-2-yn-1-yl)picolinamide]"
> 80%,1 to 9.9 nM,"Cc1nc(-c2cnc(N(C)c3cc(C4CCOCC4)c4c(c3)n(C)c(=O)n4C)cn2)cnc1C(=O)NCC#Cc1cc2c(C3CCC(=O)NC3=O)cccc2o1 (centres unmarked) [Example A222, 5′-((1,3-dimethyl-2-oxo-7-(tetrahydro-2H-pyran-4-yl)-2,3-dihydro-1H-benzo[d]imidazol-5-yl)(methyl)amino)-N-(3-(4-(2,6-dioxo-piperidin-3-yl)benzofuran-2-yl)prop-2-yn-1-yl)-6-methyl-[2,2′-bipyrazine]-5-carboxamide]"
< 20%,> 1000 nM,"Cc1cc(-c2ncc(N(C)c3cc4c(c(N5CCOCC5)n3)n(C)c(=O)n4C)cn2)cnc1C(=O)NCC#Cc1ccc2occ(C3CCC(=O)NC3=O)c2c1 (centres unmarked) [Example A147, 5-(5-((1,3-dimethyl-4-morpholino-2-oxo-2,3-dihydro-1H-imidazo[4,5-c]pyridin-6-yl)(methyl)amino)pyrimidin-2-yl)-N-(3-(3-(2,6-dioxopiperidin-3-yl)benzofuran-5-yl)prop-2-yn-1-yl)-3-methylpicolinamide]"
< 20%,> 1000 nM,"CN1C(=O)Cc2cc(-c3cccc4cc(-c5ccc(C(=O)NCC#Cc6ccc7occ(C8CCC(=O)NC8=O)c7c6)nc5)ncc34)ccc21 (centres unmarked) [Example A104, N-(3-(3-(2,6-dioxo-piperidin-3-yl)benzofuran-5-yl)prop-2-yn-1-yl)-5-(8-(1-methyl-2-oxoindolin-5-yl)isoquinolin-3-yl)picolinamide]"
> 80%,< 1 nM,"Cc1cc(N2CCCc3nc(-c4ccc(C(=O)NCC#Cc5cc6c(C7CCC(=O)NC7=O)cccc6o5)nc4)ncc32)cc2c1n(C)c(=O)n2C (centres unmarked) [Example A188, N-(3-(4-(2,6-dioxo-piperidin-3-yl)benzofuran-2-yl)prop-2-yn-1-yl)-5-(5-(1,3,7-trimethyl-2-oxo-2,3-dihydro-1H-benzo[d]imidazol-5-yl)-5,6,7,8-tetrahydropyrido[3,2-d]pyrimidin-2-yl)picolinamide]"
60 to 79%,100 to 999 nM,"CC(C)c1cc(-c2cccc3cc(-c4ccc(C(=O)NCC#Cc5cc(C#N)c6cnn(C7CCC(=O)NC7=O)c6c5)nc4)ncc23)cc2c1n(C)c(=O)n2C (centres unmarked) [Example A21, N-(3-(4-Cyano-1-(2,6-dioxopiperidin-3-yl)-1H-indazol-6-yl)prop-2-yn-1-yl)-5-(8-(7-isopropyl-1,3-dimethyl-2-oxo-2,3-dihydro-1H-benzo[d]imidazol-5-yl)isoquinolin-3-yl)picolinamide]"
> 80%,1 to 9.9 nM,"Cc1cc(-c2ncc(N(C)c3cc(C4CCOCC4)c4c(c3)n(C)c(=O)n4C)cn2)cnc1C(=O)NCC#Cc1cc2c(C3CCC(=O)NC3=O)cccc2o1 (centres unmarked) [Example A256, 5-(5-((1,3-dimethyl-2-oxo-7-(tetrahydro-2H-pyran-4-yl)-2,3-dihydro-1H-benzo[d]imidazol-5-yl)(methyl)amino)pyrimidin-2-yl)-N-(3-(4-(2,6-dioxo-piperidin-3-yl)benzo-furan-2-yl)prop-2-yn-1-yl)-3-methylpicolinamide]"
60 to 79%,1 to 9.9 nM,"COc1cc2cnn(C3CCC(=O)NC3=O)c2cc1C#CCNC(=O)c1ccc(-c2cc3cccc(-c4cc(C(C)C)c5c(c4)n(C)c(=O)n5C)c3cn2)cn1 (centres unmarked) [Example A27, N-(3-(1-(2,6-Dioxopiperidin-3-yl)-5-methoxy-1H-indazol-6-yl)prop-2-yn-1-yl)-5-(8-(7-isopropyl-1,3-dimethyl-2-oxo-2,3-dihydro-1H-benzo[d]imidazol-5-yl)isoquinolin-3-yl)picolinamide]"
> 80%,1 to 9.9 nM,"COc1cc(-c2ncc3c(n2)CCCN3c2cccc3c2cc(C)c(=O)n3C)cnc1C(=O)NCC#Cc1ccc2occ(C3CCC(=O)NC3=O)c2c1 (centres unmarked) [Example B50, 5-(5-(1,3-dimethyl-2-oxo-1,2-dihydroquinolin-5-yl)-5,6,7,8-tetrahydropyrido[3,2-d]pyrimidin-2-yl)-N-(3-(3-(2,6-dioxopiperidin-3-yl)benzofuran-5-yl)prop-2-yn-1-yl)-3-methoxypicolinamide]"
> 80%,1 to 9.9 nM,"Cc1cc(-c2ncc(N(C)c3cc(C(C)C)c4c(c3)n(C)c(=O)n4C)cc2C#N)cnc1C(=O)NCC#Cc1ccc2occ(C3CCC(=O)NC3=O)c2c1 (centres unmarked) [Example A98, 3-cyano-N-(3-(3-(2,6-dioxopiperidin-3-yl)benzofuran-5-yl)prop-2-yn-1-yl)-5-((7-isopropyl-1,3-dimethyl-2-oxo-2,3-dihydro-1H-benzo[d]imidazol-5-yl)(methyl)amino)-5′-methyl-[2,3′-bipyridine]-6′-carboxamide]"
60 to 79%,100 to 999 nM,"CC(C)c1cc(-c2cccc3cc(-c4ccc(C(=O)NCC#Cc5ccc6c(C#N)cn(C7CCC(=O)NC7=O)c6c5)nc4)ncc23)cc2c1n(C)c(=O)n2C (centres unmarked) [Example A19, N-(3-(3-Cyano-1-(2,6-dioxopiperidin-3-yl)-1H-indol-6-yl)prop-2-yn-1-yl)-5-(8-(7-isopropyl-1,3-dimethyl-2-oxo-2,3-dihydro-1H-benzo[d]imidazol-5-yl)isoquinolin-3-yl)picolinamide]"
> 80%,< 1 nM,"Cc1cc2c(N3CCN(C)c4cc(-c5ccc(C(=O)NCC#Cc6cc7c(C8CCC(=O)NC8=O)cccc7o6)nc5)ncc43)cc(C(C)C)cc2n(C)c1=O (centres unmarked) [Example B95, N-(3-(4-(2,6-dioxopiperidin-3-yl)benzofuran-2-yl)prop-2-yn-1-yl)-5-(4-(7-isopropyl-1,3-dimethyl-2-oxo-1,2-dihydroquinolin-5-yl)-1-methyl-1,2,3,4-tetrahydropyrido[3,4-b]pyrazin-7-yl)picolinamide]"
> 80%,1 to 9.9 nM,"CC(C)c1cc(N2CCOc3cc(-c4ccc(C(=O)NCC#Cc5ccc6occ(C7CCC(=O)NC7=O)c6c5)nc4)c(F)cc32)cc2c1n(C)c(=O)n2C (centres unmarked) [Example A110, N-(3-(3-(2,6-dioxo-piperidin-3-yl)benzofuran-5-yl)prop-2-yn-1-yl)-5-(6-fluoro-4-(7-isopropyl-1,3-dimethyl-2-oxo-2,3-dihydro-1H-benzo[d]imidazol-5-yl)-3,4-dihydro-2H-benzo[b][1,4]oxazin-7-yl)picolinamide]"
> 80%,10 to 99 nM,"Cc1cc(-c2ccc(N(C)c3cc(C(C)C)c4c(c3)n(C)c(=O)n4C)cc2C(F)F)cnc1C(=O)NCC#Cc1cccc(NC2CCC(=O)NC2=O)c1 (centres unmarked) [Example A41, 5-(2-(difluoromethyl)-4-((7-isopropyl-1,3-dimethyl-2-oxo-2,3-dihydro-1H-benzo[d]imidazol-5-yl) (methyl)amino)phenyl)-N-(3-(3-((2,6-dioxopiperidin-3-yl)amino)phenyl)-prop-2-yn-1-yl)-3-methylpicolinamide]"
> 80%,1 to 9.9 nM,"Cc1cc(N2CCCc3nc(-c4ccc(C(=O)NCC#Cc5cc6c(C7CCC(=O)NC7=O)nccc6o5)nc4)ncc32)c2cc(C)c(=O)n(C)c2c1 (centres unmarked) [Example B120, N-(3-(4-(2,6-dioxopiperidin-3-yl)furo[3,2-c]pyridin-2-yl)prop-2-yn-1-yl)-5-(5-(1,3,7-trimethyl-2-oxo-1,2-dihydroquinolin-5-yl)-5,6,7,8-tetrahydropyrido[3,2-d]pyrimidin-2-yl) picolinamide]"
< 20%,> 1000 nM,"Cc1cc(-c2ncc(N(C)c3cc(C4CCOCC4)c4oc(=O)n(C)c4c3)cn2)cnc1C(=O)NCC#Cc1ccc2occ(C3CCC(=O)NC3=O)c2c1 (centres unmarked) [Example A114, N-(3-(3-(2,6-dioxo-piperidin-3-yl)benzofuran-5-yl)prop-2-yn-1-yl)-3-methyl-5-(5-(methyl (3-methyl-2-oxo-7-(tetrahydro-2H-pyran-4-yl)-2,3-dihydrobenzo[d]oxazol-5-yl)amino)pyrimidin-2-yl)picolinamide]"
> 80%,1 to 9.9 nM,"Cc1cc(-c2ccc(N(C)c3cc(C4=CCOCC4)c4c(c3)n(C)c(=O)n4C)cn2)cnc1C(=O)NCC#Cc1cccc(NC2CCC(=O)NC2=O)c1 (centres unmarked) [Example A40, 5-((7-(3,6-dihydro-2H-pyran-4-yl)-1,3-dimethyl-2-oxo-2,3-dihydro-1H-benzo[d]imidazol-5-yl)(methyl)amino)-N-(3-(3-((2,6-dioxopiperidin-3-yl)amino)phenyl)prop-2-yn-1-yl)-5′-methyl-[2,3′-bipyridine]-6′-carboxamide]"
> 80%,1 to 9.9 nM,"CCc1cc(N2CCCc3cc(-c4ccc(C(=O)NCC#Cc5ccc6occ(C7CCC(=O)NC7=O)c6c5)nc4)c(F)cc32)c2cc(C)c(=O)n(C)c2c1 (centres unmarked) [Example B133, N-(3-(3-(2,6-dioxopiperidin-3-yl)benzofuran-5-yl)prop-2-yn-1-yl)-5-(7′-ethyl-7-fluoro-1′,3′-dimethyl-2′-oxo-1′,2′,3,4-tetrahydro-2H-[1,5′-biquinolin]-6-yl)picolinamide]"
> 80%,1 to 9.9 nM,"Cc1cc(-c2ncc3c(n2)CCCN3c2nc(N3CCOCC3)cc3c2cc(C)c(=O)n3C)cnc1C(=O)NCC#Cc1cc2c(C3CCC(=O)NC3=O)cccc2o1 (centres unmarked) [Example B89, 5-(5-(1,3-dimethyl-7-morpholino-2-oxo-1,2-dihydro-1,6-naphthyridin-5-yl)-5,6,7,8-tetrahydropyrido[3,2-d]pyrimidin-2-yl)-N-(3-(4-(2,6-dioxopiperidin-3-yl)benzofuran-2-yl)prop-2-yn-1-yl)-3-methylpicolinamide]"
